Measured values: publication PMC8776094, “Reactive Oxygen Species Production Is Responsible for Antineoplastic Activity of Osmium, Ruthenium, Iridium and Rhodium Half-Sandwich Type Complexes with Bidentate Glycosyl Heterocyclic Ligands in Various Cancer Cell Models” (International Journal of Molecular Sciences, 2022)

Columns and labels:
[1] = Determination of the distribution coefficients (logD), n-octanol/PBS; format: physicochemical; conditions: n-octanol / PBS pH = 7.40, rt
Experimental: Before starting the experiments, n-octanol was saturated with an aqueous PBS solution (pH = 7.40) and vice versa. A solution of the appropriate complex (approximately 0.2–0.3 mg) in a mixture of 2.50 mL pre-saturated n-octanol and 2.50 mL pre-saturated PBS buffer was made, and the resulting mixture was then vigorously stirred for 3 days at rt. Based on our previous NMR stability experiments, this time is long enough to reach equilibrium among the various ionic complex species. Due to the lipophilic/hydrophilic features of the complexes, those with benzoyl protection could primarily be found in the n-octanol, while the complexes with O-peracetylated and O-deprotected ligands were in the aqueous PBS phase. The corresponding separated solution was centrifuged (ScanSpeed 406G instrument, 4000 RPM for 5 min) and the absorption of the ”stock solution” was determined (VWR UV-1600PC Spectrophotometer, 270–420 nm). Then, 2.00 mL of the stock solution was vigorously stirred with 16.00 mL of pre-saturated n-octanol or PBS solution. After one day had passed, the phases were separated, centrifuged, and the absorption of the solution was measured again. From the absorption difference of the stock solutions, the distribution coefficient (D) was determined using previously described formulae [71].

[2] = tested on: L428, a Hodgkin's lymphoma cell line; assay: Cytostasis assay, 96 h, L428; format: cell-based; conditions: for cytostatic activity on L428 cells (in words): 96 h; for L428 Max. Inh. (%): 96 h treatment, ND = not detected
Experimental: (§1) The compounds were tested between 0.001694 and 33.3333 µM, using a 4-hour-long MTT test to assess rapid toxicity and a 48-hour-long SRB assay to assess the long-term effects of the inhibition of proliferation (cytostasis). The MTT assay assesses the activity of mitochondrial complex I and detects rapid, direct toxicity, as well as indicating apoptosis and necrosis. The SRB assay measures the total protein content that is proportional to cell numbers; therefore, the assay can detect changes in cell numbers and can thus be used as a readout for cell proliferation. The SRB assay was performed after 48 h of treatment (with the exception of L428 cells, which were tested for 96 h due to their slower proliferation rate). In this setting, the SRB assay informs us of long-term changes to cell proliferation. We assessed the maximal inhibition within that concentration range, and descriptive statistics were performed. We performed a one-way ANOVA, followed by the Kruskal–Wallis test, regardless of the normal or non-normal distribution of the data. Due to the large number of significance values, the results of the significance calculations are provided in an Excel spreadsheet at https://figshare.com/s/28d14597d5041f08eb08 (accessed on 6 January 2022), among other primary data of the study. Where possible, nonlinear regression was performed on the curves to determine the IC50 values ((inhibitor) vs. response—variable slope (four parameters) method with Graphpad v8.0.1). […] In Table 5, we added the IC50 values that we determined for a set of 4 active ruthenium half-sandwich complexes we identified previously, to be used in subsequent structure-activity relationship (SAR) analyses.
We turned next to assessing whether the cytostatic activity of Os-3, Os-4, Os-5, Os-6 and Ir-6 complexes is specific for ovarian cancer cell lines or if they may be active on other cell lines. To that end, we tested the complexes on another carcinoma cell line (Capan2, a pancreatic adenocarcinoma cell line), on a sarcoma cell line (Saos, an osteosarcoma cell line) and on a lymphoma cell line (L428, a Hodgkin’s lymphoma cell line).
L428 cells were maintained in RPMI 1640 medium, supplemented with 10% fetal calf serum, 2 mM glutamine, and 1% penicillin-streptomycin.
The assay was performed similarly to the method used in [73]. Cells were seeded in 96-well plates the day before the assay. Cells were treated with the compounds for 48 h, with the exception of L428, where 96 h of treatment was applied. Cells were fixed with 10% trichloroacetic acid (TCA). Fixed cells were washed in distilled water 3 times, followed by staining with SRB (0.4 m/V% dissolved in 1% acetic acid) for 10 min. The stained cells were washed in 1% acetic acid 5 times; the acetic acid was removed, and the cells were left to dry. Protein-bound SRB was released by adding 100 µL 10 mM Tris base. Plates were measured in a plate photometer (Thermo Scientific Multiscan GO spectrophotometer, Waltham, MA, USA) at 540 nm. On each plate, wells were designed to contain untreated cells. In calculations, the readings for these wells were considered as 1 and all readings were expressed relative to these values.
Here, 1.5 × 10^3 Capan2, 3 × 10^3 Saos cells and 10^4 L428 cells were plated onto 96-well plates. Capan2 and Saos cells were treated with the compounds in the concentrations indicated for 48 h for an SRB assay. L428 cells were treated with the compounds in the concentrations indicated for 96 h, then cells were counted using conventional microscopy and a Burker chamber. Data are represented as average ± SD, from three biological replicates; individual assays were performed in duplicate. Values were normalized for vehicle-treated cells; the absorbance for vehicle-treated cells is equal to 1. A one-way ANOVA, followed by a Kruskal–Wallis test, was performed individually for each compound. […]

[3] = tested on: ID8 ovarian cancer cell line; assay: MTT reduction assay, 4 h, rapid toxicity, ID8; format: cell-based; conditions: 4 h treatment; for Maximum Inhibition (%) ID8: MTT assay, ND = not detected or cannot be calculated
Experimental: as §1
ID8 cells were cultured in a high-glucose DMEM (4.5 g/L glucose) medium, supplemented with 4% fetal calf serum, 2 mM glutamine, 1% penicillin-streptomycin, and 1% ITS supplement (I3146).
The MTT reduction assay measures the activity of mitochondrial complex I and can be used to detect apoptosis and necrosis. The assay was performed similarly to the method used in [72]. Briefly, cells were plated in 96-well plates the day before the assay. Cells were treated with the compounds for 4 h, then MTT was added at 0.5 mg/mL final concentration and the cells were incubated at 37 °C in a cell incubator. The culture media were removed and the reduced MTT dye was dissolved in dimethyl-sulfoxide (DMSO) and plates were measured in a plate photometer (Thermo Scientific Multiscan GO spectrophotometer, Waltham, MA, USA) at 540 nm. On each plate, wells were designed to contain untreated/vehicle-treated cells. In the calculations, the readings for these wells were considered as 1 and all readings were expressed relative to these values.

Row | SMILES | LogD [1] | cytostatic activity on L428 cells (in words) [2] | L428 Max. Inh. (%) [2] [%] | cytotoxicity on ID8 cells, MTT assay (in words) [3] | Maximum Inhibition (%) ID8 [3] [%]
1 | Cc1c(C)c(C)[c-](C)c1C.F[P-](F)(F)(F)(F)F.O=C(OCC1OC(n2cc(-c3ccccn3)nn2)C(OC(=O)c2ccccc2)C(OC(=O)c2ccccc2)C1OC(=O)c1ccccc1)c1ccccc1.[Cl][Ir+2] (mixture of isomers) [Ir-6] | 2.36 | active on all cell lines | 100 | mild cytotoxicity | 62.71
2 | Cc1ccc(C(C)C)cc1.F[P-](F)(F)(F)(F)F.O=C(OCC1OC(c2nnc(-c3ccccn3)o2)C(OC(=O)c2ccccc2)C(OC(=O)c2ccccc2)C1OC(=O)c1ccccc1)c1ccccc1.[Cl][Os+] (mixture of isomers) [Os-3] | 3.32 | active on all cell lines | 100 | cytotoxic capacity to a greater extent than on A2780 cells | 35.24
3 | Cc1ccc(C(C)C)cc1.F[P-](F)(F)(F)(F)F.O=C(OCC1OC(c2nnc(-c3ccccn3)o2)C(OC(=O)c2ccccc2)C(OC(=O)c2ccccc2)C1OC(=O)c1ccccc1)c1ccccc1.[Cl][Os+] (mixture of isomers) [Os-4] | 2.87 | active on all cell lines | 100 |  | 22.91
4 | Cc1ccc(C(C)C)cc1.F[P-](F)(F)(F)(F)F.O=C(OC1COC(c2nnc(-c3ccccn3)o2)C(OC(=O)c2ccccc2)C1OC(=O)c1ccccc1)c1ccccc1.[Cl][Os+] (mixture of isomers) [Os-5] | 2.36 | active on all cell lines | 100 | cytotoxic capacity to a greater extent than on A2780 cells | 59.51
5 | Cc1ccc(C(C)C)cc1.F[P-](F)(F)(F)(F)F.O=C(OCC1OC(n2cc(-c3ccccn3)nn2)C(OC(=O)c2ccccc2)C(OC(=O)c2ccccc2)C1OC(=O)c1ccccc1)c1ccccc1.[Cl][Os+] (mixture of isomers) [Os-6] | 2.33 | active on all cell lines | 100 | cytotoxic capacity to a greater extent than on A2780 cells | 64.44
